According to US20080213390A1, “Deuterium Depleted Water (Ddw) Using As Adjuvant In Cancer Therapy For Cytostatics Toxicity Reducing” (priority 2005, published 2008):
Where two headings read alike, the source gives them in different places.

Columns and labels:
[1] = serum, 8 rats per lot
[2] = Measurement of protein, glycoprotein and serum protein glycolysis; assay type: in vivo, Wistar rats; details: for Amount of glycolysis with Deuterium Depleted Water: 60 ppm DDW daily diet; for Percentage of decrease of protein glycolysis in animals receiving DDW: DDW versus tap water; for Amount of Glycolysis with Tap Water: tap water daily diet
Text: The methods used for these measurements are well known (measuring burette and the (glucidic) glucose compound dosing in the reaction with orto-toluidine).

[3] = Protocol: 60 ppm concentration Deuterium Depleted Water was used for healthy adult outbred Wistar rats. Mono-chemotherapy was used to treat these animals using the following cytostatics: Vinblastine (VBL); Cyclophosphamide (CFS); 5-Fluorouracil (5-Fu); Farmarubicine (FARM). The administered doses were:
VBL—0.1 mg/kg body weight;
5-Fu—10 mg/kg body weight; and
FARM—1 mg/kg body weight.
The cytostatics were intra-peritoneally administered (i.p.) for 5 days consecutively.
The animals were distributed into two groups, as:
Animal sacrifice occurred over 5 and 10 days, respectively from the last cytostatic dose. After animal sacrifice, some tests were performed: bio-chemical, cyto-histological and morphological tests (on liver, spleen, kidneys), and tests for 3HTdR incorporation into lymphoid organs (bone marrow and lympho-nodules).
The protective effect of the 60 ppm Deuterium Depleted Water against the toxicity generated by cytostatics were studied using lots of 88 Wistar rats, each lot, males and females, with an average weight of 172 g. The animal lots were established as per GLP on pharmacological studies on laboratory-tested animals.

[4] = TW-control group (150 ppm Deuterium tap water daily diet)
[5] = DDW group (daily diet with Deuterium Depleted Water)
[6] = DDW group, cytostatic i.p. 5 days
[7] = TW-control group similarly treated, animals with obvious toxicity signs had to be sacrificed

Procedure for P450 cyto-chromes: To study it, the cell organelles were separated by repeated centrifugation with a final separation of microsomes at 105,000 g via ultra-centrifugation. At the microsomes level, the P450 cyto-chromes (a member of the iso-enzymes family) activity and concentration are measured, which are the most important indications of enzyme activation (MFO).
The P450 concentration is spectrophotometrically determined after CO and Natriumdithionit reduction of microsomal P450 (Omura and Sato method). […] The enzymatic activity has been determined for a single substratum, namely for p-nitroanisol, which involves a de-metilation reaction.

| SMILES | Sialic acid (average values) [1, 5] [mmol/L] | Sialic acid (average values) ([1]; TW-control group) [mmol/L] | Amount of glycolysis with Deuterium Depleted Water [2] [mg glucides/g proteins] | Percentage of decrease of protein glycolysis in animals receiving DDW [2] [%] | Amount of Glycolysis with Tap Water [2] [mg glucides/g proteins] | spontaneous mortality [3, 6] | spontaneous mortality [3, 7] | signs of toxicity during the 5 days of therapy and post-therapy period ([3]; rat, in vivo, ip) | P450 activity relative to the control group (P450 cyto-chromes; group of animals treated with Deuterium depleted Water) | percentage of mortality ([3]; DDW group (60 ppm DDW daily diet), cytostatic i.p. 5 days) [%] | percentage of mortality ([3]; TW-control group (tap water daily diet), cytostatic i.p. 5 days) [%] | body weight increase ([3]; rat, in vivo) | findings in peripheral blood [4] | signs of toxicity during the 5 days of therapy and post-therapy period [3, 6] | decrease of the phase I and II enzymes (P450 cyto-chromes; group TW-CFS) |
| --- | --- | --- | --- | --- | --- | --- | --- | --- | --- | --- | --- | --- | --- | --- | --- |
| O=c1[nH]cc(F)c(=O)[nH]1 [5-fluorouracil, 5-Fluorouracil] | 2.43 | 3.04 | 4.2 | 39 | 6.89 | no records of any spontaneous dead animals | spontaneous mortality occurred | no signs of toxicity | approximately 200% |  |  |  |  |  |  |
| COc1cccc2c1C(=O)c1c(O)c3c(c(O)c1C2=O)C[C@@](O)(C(=O)CO)C[C@@H]3O[C@H]1C[C@H](N)[C@@H](O)[C@H](C)O1 [farmarubicine, Farmarubicine] | 2.62 | 2.88 | 6.3 | 35 | 9.72 | no records of any spontaneous dead animals | spontaneous mortality occurred | no signs of toxicity |  |  |  |  |  |  |  |
| CC[C@]1(O)C[C@@H]2CN(CCc3c([nH]c4ccccc34)[C@@](C(=O)OC)(c3cc4c(cc3OC)N(C)[C@H]3[C@@](O)(C(=O)OC)[C@H](OC(C)=O)[C@]5(CC)C=CCN6CC[C@]43[C@@H]65)C2)C1 [vinblastine, Vinblastine] | 2.82 | 3.00 | 7.5 | 7 | 8.06 |  |  | low intensity toxic effects |  | 25 | 66 | far more evident |  |  |  |
| O=P1(N(CCCl)CCCl)NCCCO1 (stereo not drawn) [Cyclophosphamide] | 2.68 | 2.77 | 5.47 | 17 | 6.59 | no records of any spontaneous dead animals | spontaneous mortality occurred |  |  |  |  |  | anemia and granulopenia | no signs of toxicity | approximately 100% |
